In patent publication US20170189372A1, “USE OF SUBSTITUTED CHROMAN COMPOUNDS” (INSTYTUT BIOLOGII MEDYCZNEJ, priority 2014, published 2017):

How the values were obtained:
[1] = system: reporter cell line for β-actin (EL-4 cells); assay: FCC test, expanded version, β-actin reporter cell line; assay type: cell-based, mouse; conditions: PMA and ionomycin, 1.56 to 50 μg/ml, 50 μg/ml assumed to be 1
Method: (§1) Development of reporter cell lines was described previously (Ulleras, E., D. Trzaska, et al. (2005); “Development of the “Cell Chip”: a new in vitro alternative technique for immunotoxicity testing”, Toxicology 206(2): 245-56). Briefly, EL-4 cells were stably transfected with transgene consisting of promoter regions from mouse β-actin, interleukin-2 (IL-2), interleukin-4 (IL-4), interferon-γ (IFN-γ), and interleukin-10 (IL-10) and ORF for EGFP. Reporter cells were cultured at density 5×10^5-1×10^6 cells/ml in a humidified atmosphere with 5% CO2 at 37° C. in RPMI 1640 with Glutamax supplemented with 20% FCS and 0.5 μg/ml G418.
(§2) Compounds after primary screening were considered to be hits when FCC parameter calculated after primary screening was ≦−5000. After secondary screening area under the curve (A) of FCC parameter versus relative concentration was calculated (maximum concentration used, i.e. 50 μg/ml, was assumed to be 1). […]
(§3) Flavonoids selected after preliminary screening were undergoing FCC testing using 5 reporter cell lines: for β-actin, interleukin-2 (IL-2), interleukin-4 (IL-4), interferon-γ (IFN-γ) and interleukin-10 (IL-10). The tested concentrations were in the range from 1.56 to 50 μg/ml.
(§4) Using flow cytometry mean fluorescence intensity (columns, left Y axis) and cell viability (dots, the right Y-axis) was determined for all the experimental points and normalized relative to the control—cells incubated with medium with PMA and ionomycin. The data is the mean of the three experiments ±SEM. The statistical significance of differences between means were determined: * p<0.05, ** p<0.01, *** p<0.001 versus control. Values above the graph represent the area under the curve showing the relationship of the FCC parameter and the relative compound concentration.

[2] = system: IL-2 production by Jurkat cells; assay: ELISA for IL-2 in Jurkat cells; assay type: cell-based; conditions: Jurkat cells, PMA and ionomycin, 24 hours
Method: Jurkat cells were seeded in 48-well plates at a concentration of 1 million/ml. Cells activated with PMA (50 ng/ml) and ionomycin (1 uM) or resting were incubated with 50 selected flavonoids in a concentration of 10 μg/ml and 50 μg/ml for 24 hours in a humidified atmosphere with 5% CO 2 at 37° C. As a control, the respective cells in the medium or in a medium with PMA and ionomycin were employed. After incubation, cells were centrifuged (8 minutes, 1300 rpm), and the cell-free supernatants were stored at −20° C. until measurements. IL-2 was assessed using a commercially available ELISA kits according to the manufacturer's instructions. Each experiment was repeated 3 times.
FCC assay and ELISA assay were repeated three times. Relative data were presented as the means±SEM. […] Statistical significance of differences observed in both assays was tested with ANOVA followed by post hoc Dunnett test using GraphPad software (La Jolla, Calif., USA). In statistical analysis non-relative data were used

[3] = system: reporter cell line for interleukin-10 (EL-4 cells); assay: FCC test, expanded version, IL-10 reporter cell line; assay type: cell-based, mouse; conditions: IL-10 reporter line; PMA and ionomycin; 1.56 to 50 μg/ml, 50 μg/ml assumed to be 1
Method: as §1, §2, §3, §4

[4] = system: reporter cell line for interleukin-4 (EL-4 cells); assay: FCC test, expanded version, IL-4 reporter cell line; assay type: cell-based, mouse; conditions: IL-4 reporter line; PMA and ionomycin; 1.56 to 50 μg/ml, 50 μg/ml assumed to be 1
Method: as §1, §2, §3, §4

[5] = system: reporter cell line for IL-2 (EL-4 cells); assay: FCC primary screening with IL-2 reporter cells; assay type: cell-based, mouse; conditions: relative viability×(relative fluorescence−100); PMA and ionomycin activated, compound 0.4 μg/ml, 18 h
Method: as §1
When applicable, cells and reagents handling was performed by JANUS Automated Workstation (PerkinElmer, Waltham, Mass., USA). Cells were seeded at a density of 5×10^4 per well in 96-well plates. In the primary screening reporter cells for IL-2 activated with PMA (50 ng/ml) and ionomycin (1 μM) were seeded in a 96-well plate and incubated with compounds from the chemical library in a total volume of 100 μL at 37° C. in a humidified atmosphere with 5% CO2 for 18 h. Concentration of compounds was 0.4 μg/ml. The final DMSO concentration was 0.2%, DMSO is not cytotoxic towards EL-4 reporter cells at this concentration. Control samples consisted of cells in medium with 0.2% DMSO with PMA (50 ng/ml) and ionomycin (1 μM). Following incubation cells were analyzed by flow cytometry. Viability was assessed in parallel to the level of EGFP-mediated fluorescence.
Selection of compounds was based on FCC parameters calculated using the following formula:
FCC parameter=relative viability×(relative fluorescence−100)
Compounds after primary screening were considered to be hits when FCC parameter calculated after primary screening was ≦−5000. After secondary screening area under the curve (A) of FCC parameter versus relative concentration was calculated (maximum concentration used, i.e. 50 μg/ml, was assumed to be 1).

[6] = system: reporter cell line for interleukin-2 (EL-4 cells); assay: FCC test, expanded version, IL-2 reporter cell line; assay type: cell-based, mouse; conditions: IL-2 reporter line; PMA and ionomycin; 1.56 to 50 μg/ml, 50 μg/ml assumed to be 1
Method: as §1, §2, §3, §4

[7] = system: reporter cell line for interferon-γ (EL-4 cells); assay: FCC test, expanded version, IFN-γ reporter cell line; assay type: cell-based, mouse; conditions: PMA and ionomycin, 1.56 to 50 μg/ml, 50 μg/ml assumed to be 1
Method: as §1, §2, §3, §4

SMILES: COc1ccc(C2CC(=O)c3cc(O)cc(O)c3O2)cc1 (stereo not shown) [Compound 1, 6,8-dihydroxy-2-(4-methoxyphenyl)chroman-4-one]
- The area under the curve showing the relationship between the FCC parameter and compound concentration, AKT [1]: −622
- Inhibition of IL-2 production (ELISA) ([2]; 10 μg/ml): No
- inhibition at 50 µg/mL ([2]; Homo sapiens, 50 μg/ml): 97%
- The area under the curve showing the relationship between the FCC parameter and compound concentration, IL-10 [3]: −1435
- The area under the curve showing the relationship between the FCC parameter and compound concentration, IL-4 [4]: −194
- FCC parameter (IL-2 screening) [5]: −8723
- The area under the curve showing the relationship between the FCC parameter and compound concentration, IL-2 [6]: −2178
- The area under the curve showing the relationship between the FCC parameter and compound concentration, IFN [7]: −1865

SMILES: CC1(C)CC2(CC(c3ccccc3)Oc3cc(O)ccc32)NC(=S)N1 (stereo not shown) [Compound 2, Spiro[4H-1-benzopyran-4,4′(1′H)-pyrimidine]-2′(3′H)-thione, 2,3,5′,6′-tetrahydro-7-hydroxy-6′,6′-dimethyl-2-phenyl]
- The area under the curve showing the relationship between the FCC parameter and compound concentration, AKT [1]: −1120
- Inhibition of IL-2 production (ELISA) ([2]; 10 μg/ml): 35%
- Inhibition of IL-2 production (ELISA) ([2]; 50 μg/ml): 91%
- The area under the curve showing the relationship between the FCC parameter and compound concentration, IL-10 [3]: −2585
- The area under the curve showing the relationship between the FCC parameter and compound concentration, IL-4 [4]: 261
- FCC parameter (IL-2 screening) [5]: −5484
- The area under the curve showing the relationship between the FCC parameter and compound concentration, IL-2 [6]: −2394
- The area under the curve showing the relationship between the FCC parameter and compound concentration, IFN [7]: −3977

SMILES: CC(=O)Oc1ccc(/C=C/C(=O)CC2OC(Oc3cc(OC(C)=O)c4c(c3)O[C@@H](c3ccc(OC(C)=O)cc3)CC4=O)C(OC(C)=O)C(OC(C)=O)C2OC(C)=O)cc1 (stereo partly drawn) [Compound 3, 4-(7-{6-[(3E)-4-(4-acetyloxyphenyl)-2-oxobut-3-enyl]-3,4,5-triacetyloxy(2H-3,4,5,6-tetrahydropyran-2-yloxy)}(2R)-5-acetyloxy-4-oxochroman-2-yl)phenyl acetate]
- The area under the curve showing the relationship between the FCC parameter and compound concentration, AKT [1]: 945
- Inhibition of IL-2 production (ELISA) ([2]; 10 μg/ml): 64%
- Inhibition of IL-2 production (ELISA) ([2]; 50 μg/ml): 68%
- The area under the curve showing the relationship between the FCC parameter and compound concentration, IL-10 [3]: −1509
- The area under the curve showing the relationship between the FCC parameter and compound concentration, IL-4 [4]: −308
- FCC parameter (IL-2 screening) [5]: −5095
- The area under the curve showing the relationship between the FCC parameter and compound concentration, IL-2 [6]: −4581
- The area under the curve showing the relationship between the FCC parameter and compound concentration, IFN [7]: −3801

SMILES: CC(=O)Oc1ccc2c(c1)OC(c1ccccc1)CC21CC(C)(C)NC(=S)N1 (stereo not shown) [Compound 4, 7-acetoksy-2,3,5′,6′-tetrahydro-6′,6′-dimetylo-2-fenylo-spiro[4H-1-benzopirano-4,4′(1′H)-pirymidyno]-2′(3′H)-tion]
- The area under the curve showing the relationship between the FCC parameter and compound concentration, AKT [1]: −104
- Inhibition of IL-2 production (ELISA) ([2]; 10 μg/ml): 27%
- Inhibition of IL-2 production (ELISA) ([2]; 50 μg/ml): 44%
- The area under the curve showing the relationship between the FCC parameter and compound concentration, IL-10 [3]: −1928
- The area under the curve showing the relationship between the FCC parameter and compound concentration, IL-4 [4]: 988
- FCC parameter (IL-2 screening) [5]: −5692
- The area under the curve showing the relationship between the FCC parameter and compound concentration, IL-2 [6]: −1081
- The area under the curve showing the relationship between the FCC parameter and compound concentration, IFN [7]: −3521

SMILES: CC(C)=CCc1c(O)cc(O)c2c1OC(c1ccc(O)cc1)CC2=O (stereo not shown) [Compound 5, 5,7-dihydroxy-2-(4-hydroxyphenyl)-8-(3-methylbut-2-enyl)chroman-4-one]
- The area under the curve showing the relationship between the FCC parameter and compound concentration, AKT [1]: −979
- inhibition at 10 µg/mL ([2]; Homo sapiens, 10 μg/ml): 28%
- inhibition at 50 µg/mL ([2]; Homo sapiens, 50 μg/ml): 95%
- The area under the curve showing the relationship between the FCC parameter and compound concentration, IL-10 [3]: −3119
- The area under the curve showing the relationship between the FCC parameter and compound concentration, IL-4 [4]: −3324
- FCC parameter (IL-2 screening) [5]: −5264
- The area under the curve showing the relationship between the FCC parameter and compound concentration, IL-2 [6]: −4991
- The area under the curve showing the relationship between the FCC parameter and compound concentration, IFN [7]: −4565
